Results on four compounds are retold here after ChEMBL document CHEMBL3525909, “Metabolism of LY654322, a growth hormone secretagogue, to an unusual diimidazopyridine metabolite” (Drug Metab Dispos, 2011).

The test system of series [1] is Plasma. Briefly: Drug metabolism in beagle dog plasma assessed as (R)-2-(4-amino-1H-imidazol-1-yl)-2-(4-fluorophenyl)-1-(pyrrolidin-1-yl)propan-1-one formation at 1 mg/kg, iv by LC-MS analysis. The arrangement: dose 1 mg/kg, route intravenous. It counts as ADME, organism-based, Canis lupus familiaris. To be noted: in vivo.
Series [2] concerns Liver. Briefly: Drug metabolism in rat liver slices assessed as (2R,2'R)-2,2'-(diimidazo[4,5-b:4',5'-e]pyridine-1,7-diyl)bis(2-(4-fluorophenyl)-1-(pyrrolidin-1-yl)propan-1-one) formation at 50 uM after 24 hrs. It counts as ADME, tissue-based.
Series [3] can be described thus: Terminal half life in Fischer 344 rat at 3 mg/kg, iv. The conditions noted are these: in vivo, read-out: beta t1/2 (converted). It counts as ADME, organism-based. The arrangement: dose 3 mg/kg, route intravenous.
The nature of series [4]: Drug metabolism in human hepatocytes assessed as (2R,2'R)-2,2'-(diimidazo[4,5-b:4',5'-e]pyridine-1,7-diyl)bis(2-(4-fluorophenyl)-1-(pyrrolidin-1-yl)propan-1-one) formation at 50 uM after 4 hrs. In kind it is ADME, cell-based, Hepatocyte.
Series [5] in a line: Plasma clearance in Fischer 344 rat at 3 mg/kg, iv. It counts as ADME, organism-based. The arrangement: dose 3 mg/kg, route intravenous.
Series [6] is described as follows: Plasma clearance in beagle dog at 1 mg/kg, iv. The arrangement: dose 1 mg/kg, route intravenous. In kind it is ADME, organism-based, Canis lupus familiaris.
A short description of series [7]: Drug excretion in Fischer 344 rat urine assessed as (R)-2-(4-amino-1H-imidazol-1-yl)-2-(4-fluorophenyl)-1-(pyrrolidin-1-yl)propan-1-one formation at 3 mg/kg, iv and 30 mg/kg, po by LC-MS analysis. It counts as ADME, organism-based. To be noted: in vivo.
A short description of series [8]: Drug excretion in Fischer 344 rat urine assessed as (2R,2'R)-2,2'-(diimidazo[4,5-b:4',5'-e]pyridine-1,7-diyl)bis(2-(4-fluorophenyl)-1-(pyrrolidin-1-yl)propan-1-one) formation at 3 mg/kg, iv and 30 mg/kg, po by LC-MS analysis. It counts as ADME, organism-based. To be noted: in vivo.
Series [9] is described as follows: Oral bioavailability in Fischer 344 rat at 30 mg/kg. In kind it is ADME, organism-based. To be noted: in vivo.
Series [10] in a line: Terminal half life in beagle dog at 1 mg/kg, iv. In kind it is ADME, organism-based, Canis lupus familiaris. The arrangement: dose 1 mg/kg, route intravenous. The conditions noted are these: in vivo, read-out: beta t1/2 (converted).
For series [11], the system named is Liver. Nature of the series: Drug metabolism in dog liver slices assessed as (2R,2'R)-2,2'-(diimidazo[4,5-b:4',5'-e]pyridine-1,7-diyl)bis(2-(4-fluorophenyl)-1-(pyrrolidin-1-yl)propan-1-one) formation at 50 uM after 24 hrs. In kind it is ADME, tissue-based, Canis lupus familiaris.
Series [12] in a line: Drug excretion in Fischer 344 rat urine assessed as (2R,2'R)-2,2'-(diimidazo[4,5-b:4',5'-e]pyridine-1,7-diyl)bis(2-(4-fluorophenyl)-1-(pyrrolidin-1-yl)propan-1-one) formation at 3 mg/kg, iv and 30 mg/kg, po by LC-UV spectrophotometry. It counts as ADME, organism-based. The conditions noted are these: in vivo.
Series [13] is described as follows: Drug excretion in beagle dog urine assessed as (R)-2-(4-amino-1H-imidazol-1-yl)-2-(4-fluorophenyl)-1-(pyrrolidin-1-yl)propan-1-one formation at 20 mg/kg, po by LC-MS analysis. On the set-up: dose 20 mg/kg, route oral. In kind it is ADME, organism-based, Canis lupus familiaris. The conditions noted are these: in vivo.
The nature of series [14]: Drug excretion in beagle dog urine assessed as (2R,2'R)-2,2'-(diimidazo[4,5-b:4',5'-e]pyridine-1,7-diyl)bis(2-(4-fluorophenyl)-1-(pyrrolidin-1-yl)propan-1-one) formation at 20 mg/kg, po by LC-MS analysis. In kind it is ADME, organism-based, Canis lupus familiaris. The arrangement: dose 20 mg/kg, route oral. The conditions noted are these: in vivo.
Series [15] has as its system Plasma. Nature of the series: Drug metabolism in Fischer 344 rat plasma assessed as (R)-2-(2-amino-2-methylpropanamido)-5-phenylpentanoic acid formation at 3 mg/kg, iv by LC-MS analysis. In kind it is ADME, organism-based. The conditions noted are these: in vivo. The arrangement: dose 3 mg/kg, route intravenous.
Series [16] has as its system Plasma. Briefly: Drug metabolism in Fischer 344 rat plasma assessed as (R)-2-(4-amino-1H-imidazol-1-yl)-2-(4-fluorophenyl)-1-(pyrrolidin-1-yl)propan-1-one formation at 3 mg/kg, iv by LC-MS analysis. It counts as ADME, organism-based. The arrangement: dose 3 mg/kg, route intravenous. The conditions noted are these: in vivo.
The nature of series [17]: Oral bioavailability in beagle dog at 3 mg/kg. The conditions noted are these: in vivo. In kind it is ADME, organism-based, Canis lupus familiaris.
The nature of series [18]: Drug level in beagle dog urine treated with 2-Methylalanyl-N-{1-[(1R)-1-(4-fluorophenyl)-1-methyl-2-oxo-2-pyrrolidin-1-ylethyl]-1H-imidazol-4-yl}-5-phenyl-D-norvalinamide at 20 mg/kg, po by LC-MS analysis. It counts as ADME, organism-based, Canis lupus familiaris. The conditions noted are these: in vivo. On the set-up: dose 20 mg/kg, route oral.
Series [19] concerns Plasma. Nature of the series: Drug level in beagle dog plasma treated with 2-Methylalanyl-N-{1-[(1R)-1-(4-fluorophenyl)-1-methyl-2-oxo-2-pyrrolidin-1-ylethyl]-1H-imidazol-4-yl}-5-phenyl-D-norvalinamide at 1 mg/kg, iv by LC-MS/MS analysis. To be noted: in vivo. In kind it is ADME, organism-based, Canis lupus familiaris. The arrangement: dose 1 mg/kg, route intravenous.
Series [20] deals with Plasma. Briefly: Drug level in Fischer 344 rat plasma treated with 2-Methylalanyl-N-{1-[(1R)-1-(4-fluorophenyl)-1-methyl-2-oxo-2-pyrrolidin-1-ylethyl]-1H-imidazol-4-yl}-5-phenyl-D-norvalinamide at 3 mg/kg, iv by LC-MS/MS analysis. It counts as ADME, organism-based. The arrangement: dose 3 mg/kg, route intravenous. The conditions noted are these: in vivo.
Series [21] in a line: Drug level in Fischer 344 rat urine treated with 2-Methylalanyl-N-{1-[(1R)-1-(4-fluorophenyl)-1-methyl-2-oxo-2-pyrrolidin-1-ylethyl]-1H-imidazol-4-yl}-5-phenyl-D-norvalinamide at 3 mg/kg, iv and 30 mg/kg, po by LC-MS analysis. In kind it is ADME, organism-based. The conditions noted are these: in vivo.
The nature of series [22]: Drug level in Fischer 344 rat urine treated with 2-Methylalanyl-N-{1-[(1R)-1-(4-fluorophenyl)-1-methyl-2-oxo-2-pyrrolidin-1-ylethyl]-1H-imidazol-4-yl}-5-phenyl-D-norvalinamide at 3 mg/kg, iv and 30 mg/kg, po by LC-UV spectrophotometry. It counts as ADME, organism-based. To be noted: in vivo.

The term clearance denotes the rate of elimination divided by the concentration. In general, bioavailability refers to dose-corrected exposure relative to a reference, in per cent. In the case of `CC(C)(N)C(=O)N[C@H](CCCc1ccccc1)C(=O)Nc1cn([C@@](C)(C(=O)N2CCCC2)c2ccc(F)cc2)cn1`, the Drug metabolism entry in the series on Plasma [1] is reported as “metabolite_detected”; with Liver [2] it was “metabolite_not_detected”; in series [4] it was “metabolite_not_detected”; in the series on Liver [11], “metabolite_not_detected”; with Plasma [15], “metabolite_detected”; with Plasma [16], “metabolite_detected”. Further, the figures for the half-life in [3] and in [10] were 120 min and 300 min, respectively. Moreover, the clearance in [5] came to 75 mL/min/kg; in series [6] it was 33 mL/min/kg. In addition, the Drug excretion result in [7], in series [8], in [12], in series [13] and in series [14] was “metabolite_detected” each time. Further, the bioavailability in [9] is 74%; in [17], 33%.
Turning to `C[C@](C(=O)N1CCCC1)(c1ccc(F)cc1)n1cnc(N)c1`, the Drug excretion entry in [18] and in series [21] was “metabolite_detected” throughout. Besides, the Drug metabolism entry in the series on Plasma [19] and in the series on Plasma [20] was “metabolite_detected” in each case.
`CC(C)(N)C(=O)N[C@H](CCCc1ccccc1)C(=O)O`: the Drug metabolism entry in the series with Plasma [20] is on record as “metabolite_detected”.
For the compound `C[C@](C(=O)N1CCCC1)(c1ccc(F)cc1)n1cnc2nc3ncn([C@@](C)(C(=O)N4CCCC4)c4ccc(F)cc4)c3cc21`, the Drug excretion entry in series [22], in [18] and in [21] was “metabolite_detected” throughout.
